Measurements published in US8877706B2, “Maytansinoid derivatives” (Bio-Thera Solutions, Ltd., Co., priority 2012, dated 2014).

Assays:
tubulin = test: HTS-Tubulin Polymerization Assay Kit, tubulin polymerization in vitro; format: biochemical; details: 1 μM preparations, 10 μL added to 100 μL 4 mg/ml tubulin; 405 nm, 37° C.; compared with the PBS buffer
Protocol: According to the instruction of kit, pre-warm the 96-well plate to 37° C. for 30 min prior to starting the assay. At the same time, the spectrophotometer (SpectraMax, Molecular Devices, USA) was set as follow: wavelength, 405 nm; temperature, 37° C.; Kinetic, 31 cycles of 1 reading per minute. Make cold G-PEM buffer (990 μL General Tubulin Buffer+10 μL GTP Stock) and keep it on ice. […] Immediately place the plate into the spectrophotometer and start recording using the kinetic setup described above. […] Nocodazole, the tubulin polymerization inhibitor, was set as a negative control. The metabolite Cys-3AA-MDC was prepared by reaction of 3AA-MDC with cysteine under the base DIEA in CH2Cl2. LC-MS (M+H^+) calc.: 964.5. found: 964.2. Rt: 12.97 min. The metabolite Lys-MCC-MDC was prepared by reaction of SMCC-MDC with lysine under the base DIEA in DMF. LC-MS (M+H^+) calc.: 1103.7. found: 1103.2. Rt: 13.00 and 13.18 min.

[1] = versus methotrexate, daunorubicin, and vincristine; cited from earlier work
[2] = system: human acute lymphoblastic leukemia line C.E.M.; details: cited from earlier work
Raji cells = test: Effect on the growth of Raji cells (CCK-8); details: 3 days
Protocol: Briefly, 10 thousands cells in 100 μL of DMEM:F12 (GBICO, CA) culture medium without serum were seeded into each well of a 96-well plate. Twice-fold serial dilutions of antibodies or conjugated form were prepared and each diluted antibodies were added in triplicate to the wells and the cultures were incubated at 37° C. for 3 days. The controls consisted of either medium alone or medium containing of Raji cell. After incubation, CCK-8 was added to each well and the absorbance at 450 nm of each well was determined in a Spectra Max spectrophotometer (Molecular Devices, Sunnyvale, Calif.).

[3] = system: EGFR positive tumor cell line A431; test: Growth inhibition, relative cell proliferation with CCK-8, A431; format: cell-based, human; details: A431, 72 hours
Protocol: Briefly, cells were detached by using 0.25% (vol/vol) trypsin and suspended in complete medium. Aliquots of cells were plated into 96-well microdilution plates. […] After 72 hours, plates were washed twice with PBS (pH 7.5), and analyzed for relative cell proliferation with CCK-8 reagent.

COc1cc2cc(c1Cl)N(C)C(=O)C[C@H](OC(=O)[C@H](C)N(C)C(=O)CCCCCN1C(=O)C=CC1=O)[C@]1(C)OC1[C@H](C)[C@@H]1C[C@@](O)(NC(=O)O1)[C@H](OC)/C=C/C=C(\C)C2 (stereo partly shown) [3AA-MDC, N2′-deacetyl-N2′-(6-maleimido-1-oxo-hexyl)maytansine]
inhibition of tubulin polymerization (tubulin): significantly inhibited the tubulin polymerization

CN[C@@H](C)C(=O)OC1CC(=O)N(C)c2cc(cc(OC)c2Cl)C/C(C)=C/C=C/C(OC)C2(O)CC(OC(=O)N2)C(C)C2OC12C (stereo partly shown) [Cys-3AA-MDC]
inhibition of tubulin polymerization (tubulin): significantly inhibited the tubulin polymerization

COc1cc2cc(c1Cl)N(C)C(=O)C[C@H](OC(=O)[C@H](C)N(C)C(=O)CCSC1CC(=O)N(CC3CCC(C(=O)NCCCC[C@H](N)C(=O)O)CC3)C1=O)[C@]1(C)O[C@H]1[C@H](C)[C@@H]1C[C@@](O)(NC(=O)O1)[C@H](OC)/C=C/C=C(\C)C2 (stereo partly shown) [Lys-mcc-MDC]
inhibition of tubulin polymerization (tubulin): significantly inhibited the tubulin polymerization

COc1cc2cc(c1Cl)N(C)C(=O)C[C@H](OC(=O)[C@H](C)N(C)C(C)=O)[C@]1(C)O[C@H]1[C@H](C)[C@@H]1C[C@@](O)(NC(=O)O1)[C@H](OC)/C=C/C=C(\C)C2 [Maytansine]
fold more cytotoxic than conventional chemotherapeutic agents [1]: 100- to 1000 fold
concentration inhibiting C.E.M. line (as low as) [2]: 10^−7 μg/mL

Bat1206: monoclonal antibody (rituximab) binding the extracellular domain of CD20
inhibition of CD20 positive cell growth (Raji cells): inhibitory effects
inhibition of A431 cell proliferation [3]: had no effects on A431 cells
